Test results reported in patent publication US9309276B2, “Synthetic lipid A derivative” (University of Georgia Research Foundation, Inc., priority 2007, dated 2016).

Experiments:
Format in all cases: cell-based
mouse TLR2 = target: T1, mouse TLR2 (Mus musculus, UniProt Q9QUN7); test: NF-κB activation in HEK 293T cells stably transfected with mouse TLR2; settings: 103/104 at 0.1, 1 and 10 μg mL−1; Pam3CysSK4 1 μg mL−1; 4 h
T1 construct: host or cells: HEK 293T
Description: (§1) Induction of NF-κB activation was determined in triplicate cultures of HEK 293T cells stably transfected with human or mouse (a) TLR4/MD2/CD14 and (b) TLR2 and transiently transfected with pELAM-Luc and pRL-TK plasmids. Forty-four h post-transfection, cells were treated with (B) E. coli LPS (10 ng mL^−1), (C) Pam3CysSK4 (1 μg mL^−1), (D, E and F) 103 (0.1, 1 and 10 μg mL^−1, respectively), (G, H and I) 104 (0.1, 1 and 10 μg mL^−1, respectively) or (A) were left untreated (control). Forty-eight h post-transfection, NF-κB activation was determined by firefly luciferase activity relative to Renilla luciferase activity. n.a. indicates not analyzed.
(§2) To examine the ability of the synthetic compounds to induce activation of NF-κB, HEK 293T cells were employed that were stably transfected with various immune receptors and transiently transfected with a plasmid containing the reporter gene pELAM-Luc (NF-κB-dependent firefly luciferase reporter vector) and a plasmid containing the control gene pRL-TK (Renilla luciferase control reporter vector) (FIG. 11). […] Although compound 104 is a weak activator of mouse TLR4, it could not induce the secretion of cytokines.
(§3) The day before transfection, HEK 293T wild type cells and HEK 293T cells stably transfected with human and murine TLR4/MD2/CD14 and human and murine TLR2 were plated in 96-well tissue culture plates (16,000 cells/well). The next day, cells were transiently transfected using PolyFect Transfection Reagent (Qiagen) with expression plasmids pELAM-Luc (NF-κB-dependent firefly luciferase reporter plasmid, 50 ng/well) (Chow et al., J. Biol. Chem., 1999, 274, 10689-10692) and pRL-TK (Renilla luciferase control reporter vector, 1 ng/well; Promega) as an internal control to normalize experimental variations. […] The luciferase activity was measured using the Dual-Luciferase Reporter Assay System (Promega) according to the manufacturer's instructions and a combination luminometer/fluorometer microplate reader (BMG Labtech). […]

human TLR2 = target: T2, human TLR2 (Homo sapiens, UniProt O60603); test: NF-κB activation in HEK 293T cells stably transfected with human TLR2; settings: 103/104 at 0.1, 1 and 10 μg mL−1; Pam3CysSK4 1 μg mL−1; 4 h
T2 construct: host or cells: HEK 293T
Description: as §1, §2, §3

Mono Mac 6 (MM6) cells = test: TNF-α induction in human monocytic Mono Mac 6 cells (ELISA); settings: 5.5 h at 37° C., increasing concentrations
Description: MM6 cells were incubated for 5.5 h at 37° C. with increasing concentrations of E. coli LPS and synthetic compounds 103 and 104 as indicated. TNF-α protein in cell supernatants was measured using ELISA. (103 and 104 show background values and therefore overlap in the figure).
We have chemically synthesized the tetra-acylated lipid As 103 and 104 (FIG. 8) to study whether LPS derived from P. gingivalis can induce cellular activation in a TLR2- or TLR4-dependent manner. Furthermore, there are indications that LPS of P. gingivalis can antagonize cytokine production induced by enteric LPS and therefore these properties have also been studied. […]
Mono Mac 6 (MM6) cells, provided by Dr. H. W. L. Ziegler-Heitbrock (Institute for Inhalationbiology, Munich, Germany), were cultured in RPMI 1640 medium with L-glutamine (BioWhittaker) supplemented with penicillin (100 u mL^−1)/streptomycin (100 μg mL^−1; Mediatech, OPI supplement (1%; Sigma; containing oxaloacetate, pyruvate and bovine insulin) and fetal calf serum (FCS; 10%; HyClone). New batches of frozen cell stock were grown up every 2 months and growth morphology evaluated. Before each experiment, MM6 cells were incubated with calcitriol (10 ng mL^−1; Sigma) for 2 days to differentiate into macrophage like cells. […]

T1 sequence (Q9QUN7 25-784): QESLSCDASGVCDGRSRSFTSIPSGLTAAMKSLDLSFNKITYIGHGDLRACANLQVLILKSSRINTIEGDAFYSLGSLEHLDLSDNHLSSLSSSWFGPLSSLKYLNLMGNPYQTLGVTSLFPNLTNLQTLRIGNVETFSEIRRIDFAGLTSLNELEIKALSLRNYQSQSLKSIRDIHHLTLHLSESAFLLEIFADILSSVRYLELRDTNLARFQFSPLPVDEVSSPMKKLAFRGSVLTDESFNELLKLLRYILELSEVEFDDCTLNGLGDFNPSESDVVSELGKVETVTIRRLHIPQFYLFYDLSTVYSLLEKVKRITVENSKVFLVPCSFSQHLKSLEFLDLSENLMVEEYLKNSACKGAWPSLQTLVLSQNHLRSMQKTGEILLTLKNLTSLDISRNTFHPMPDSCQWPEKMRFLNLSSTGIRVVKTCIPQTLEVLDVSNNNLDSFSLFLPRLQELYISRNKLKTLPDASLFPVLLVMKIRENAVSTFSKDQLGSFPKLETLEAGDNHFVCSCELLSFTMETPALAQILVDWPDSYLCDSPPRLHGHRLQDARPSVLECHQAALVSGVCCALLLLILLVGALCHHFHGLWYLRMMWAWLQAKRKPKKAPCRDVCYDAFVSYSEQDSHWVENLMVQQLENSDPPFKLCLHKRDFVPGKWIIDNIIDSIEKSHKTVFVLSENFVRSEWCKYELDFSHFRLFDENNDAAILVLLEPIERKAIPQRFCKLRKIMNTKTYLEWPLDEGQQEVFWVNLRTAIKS
T2 sequence (O60603 21-784): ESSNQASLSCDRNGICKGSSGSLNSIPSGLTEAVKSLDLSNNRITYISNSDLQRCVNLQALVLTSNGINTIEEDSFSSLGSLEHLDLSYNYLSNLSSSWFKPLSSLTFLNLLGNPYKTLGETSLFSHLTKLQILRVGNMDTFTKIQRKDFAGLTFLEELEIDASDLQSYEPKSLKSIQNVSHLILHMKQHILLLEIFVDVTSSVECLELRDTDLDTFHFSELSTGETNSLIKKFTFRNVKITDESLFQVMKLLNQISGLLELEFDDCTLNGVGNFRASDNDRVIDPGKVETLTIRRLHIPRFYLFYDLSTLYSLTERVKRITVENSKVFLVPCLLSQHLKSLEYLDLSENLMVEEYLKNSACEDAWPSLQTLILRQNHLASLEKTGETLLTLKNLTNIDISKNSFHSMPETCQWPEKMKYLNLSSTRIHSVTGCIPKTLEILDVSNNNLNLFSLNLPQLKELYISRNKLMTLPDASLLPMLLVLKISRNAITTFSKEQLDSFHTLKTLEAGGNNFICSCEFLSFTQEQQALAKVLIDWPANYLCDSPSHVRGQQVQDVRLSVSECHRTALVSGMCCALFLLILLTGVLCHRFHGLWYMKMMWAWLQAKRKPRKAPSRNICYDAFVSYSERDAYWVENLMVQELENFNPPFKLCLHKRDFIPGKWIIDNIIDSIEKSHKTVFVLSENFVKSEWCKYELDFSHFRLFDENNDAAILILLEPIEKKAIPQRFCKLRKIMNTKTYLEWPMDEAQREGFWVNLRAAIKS

SMILES	NF-κB activation, mouse TLR2 (mouse TLR2)	NF-κB activation, human TLR2 (human TLR2)	TNF-α induction (in words) (Mono Mac 6 (MM6) cells)
CCCCCCCCCCCCCCCC(=O)O[C@H](CCCCCCCCCCCC(C)C)CC(=O)N[C@H]1[C@H](OC[C@H]2O[C@H](OP(=O)(O)O)[C@H](NC(=O)C[C@H](O)CCCCCCCCCCCC(C)C)[C@@H](OC(=O)C[C@H](O)CCCCCCCCCCCCC)[C@@H]2O)O[C@H](CO)[C@@H](O)[C@@H]1O [Compound 103, 6-O-{2-Deoxy-2-[(R)-3-hexadecanoyloxy-15-methyl-hexadecanoylamino]-β-D-glucopyranosyl}-3-O—[(R)-3-hydroxy-hexadecanoyl]-2-deoxy-2-[(R)-3-hydroxy-15-methyl-hexadecanoylamino]-α-D-glucopyranose 1-phosphate]	No activation of NF-κB	No activation of NF-κB	did not exhibit any activity
CCCCCCCCCCCCCCCC(=O)O[C@H](CCCCCCCCCCCC(C)C)CC(=O)N[C@H]1[C@H](OC[C@H]2O[C@H](OP(=O)(O)O)[C@H](NC(=O)C[C@H](O)CCCCCCCCCCCC(C)C)[C@@H](O)[C@@H]2O)O[C@H](CO)[C@@H](O)[C@@H]1ONC(=O)C[C@H](O)CCCCCCCCCC(C)C [Compound 104, 6-O-{2-Deoxy-2-[(R)-3-hexadecanoyloxy-15-methyl-hexadecanoylamino]-3-O—[(R)-3-hydroxy-13-methyl-tetradecanoylamino]-β-D-glucopyranosyl}-2-deoxy-2-[(R)-3-hydroxy-15-methyl-hexadecanoylamino]-α-D-glucopyranose 1-phosphate]	No activation of NF-κB	No activation of NF-κB	did not exhibit any activity
